Values of other authors, collected in US6368586B1, “Methods and compositions for enhancing the bioadhesive properties of polymers” (Brown University Research Foundation, priority 1996, dated 2002).
Where two headings read alike, the source gives them in different places.

SMILES: [Ni+2] [Ni^2+]
- Acid Ionization Constants (pKa at 25° C.) for Aqua Ions: 10.6
- Acid Ionization Constants (pKa at 25° C.) for Aqua Ions (listed as Ni^3+): 9.7

SMILES: [Ba+2] [Ba^2+]
- Acid Ionization Constants (pKa at 25° C.) for Aqua Ions: 13.2

SMILES: [Cu+2] [Cu^2+]
- Acid Ionization Constants (pKa at 25° C.) for Aqua Ions: 8.0

SMILES: [Al+3] [Al^3+]
- Acid Ionization Constants (pKa at 25° C.) for Aqua Ions: 4.9

SMILES: [Mg+2] [Mg^2+]
- Acid Ionization Constants (pKa at 25° C.) for Aqua Ions: 11.4

SMILES: [Fe+2] [Fe^2+]
- Acid Ionization Constants (pKa at 25° C.) for Aqua Ions: 8.3
- Acid Ionization Constants (pKa at 25° C.) for Aqua Ions (listed as Fe^3+): 2.2

SMILES: [Ca+2] [Ca^2+]
- Acid Ionization Constants (pKa at 25° C.) for Aqua Ions: 12.6
